Active and inactive are the calls of the source.
Legend:
ORF 73 = ORF 73 (Human herpesvirus 8, UniProt O40947); assay: inhibitors of C-LANA binding to LBS DNA, dose response, biochemical, fluorescence polarization, cherry-picked samples (AID 504725); set-up: species or system Human gammaherpesvirus 8;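 note: fluorescence polarization of a labeled DNA duplex reporting LANA DNA binding; potency is for inhibitors that block LANA binding to the DNA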
[1] = molecular target: UDP-galactopyranose mutase (Mycobacterium tuberculosis, UniProt P9WIQ1); assay: Inhibitors of Mycobacterium tuberculosis UDP-galactopyranose mutase (UGM) enzyme Measured in Biochemical System Using Plate Reader - 2105-02_Inhibitor_Dose_CherryPick_Activity. [Related pubchem assays (depositor defined):AID504439]
Insulin-degrading enzyme [2] = molecular target: T1, Insulin-degrading enzyme (Homo sapiens, UniProt P14735); assay: activators of recombinant IDE enzyme, dose response, counter-screen for IDE activator project, biochemical, fluorescence polarization (AID 588681)
T1 sequence (P14735 whole entry): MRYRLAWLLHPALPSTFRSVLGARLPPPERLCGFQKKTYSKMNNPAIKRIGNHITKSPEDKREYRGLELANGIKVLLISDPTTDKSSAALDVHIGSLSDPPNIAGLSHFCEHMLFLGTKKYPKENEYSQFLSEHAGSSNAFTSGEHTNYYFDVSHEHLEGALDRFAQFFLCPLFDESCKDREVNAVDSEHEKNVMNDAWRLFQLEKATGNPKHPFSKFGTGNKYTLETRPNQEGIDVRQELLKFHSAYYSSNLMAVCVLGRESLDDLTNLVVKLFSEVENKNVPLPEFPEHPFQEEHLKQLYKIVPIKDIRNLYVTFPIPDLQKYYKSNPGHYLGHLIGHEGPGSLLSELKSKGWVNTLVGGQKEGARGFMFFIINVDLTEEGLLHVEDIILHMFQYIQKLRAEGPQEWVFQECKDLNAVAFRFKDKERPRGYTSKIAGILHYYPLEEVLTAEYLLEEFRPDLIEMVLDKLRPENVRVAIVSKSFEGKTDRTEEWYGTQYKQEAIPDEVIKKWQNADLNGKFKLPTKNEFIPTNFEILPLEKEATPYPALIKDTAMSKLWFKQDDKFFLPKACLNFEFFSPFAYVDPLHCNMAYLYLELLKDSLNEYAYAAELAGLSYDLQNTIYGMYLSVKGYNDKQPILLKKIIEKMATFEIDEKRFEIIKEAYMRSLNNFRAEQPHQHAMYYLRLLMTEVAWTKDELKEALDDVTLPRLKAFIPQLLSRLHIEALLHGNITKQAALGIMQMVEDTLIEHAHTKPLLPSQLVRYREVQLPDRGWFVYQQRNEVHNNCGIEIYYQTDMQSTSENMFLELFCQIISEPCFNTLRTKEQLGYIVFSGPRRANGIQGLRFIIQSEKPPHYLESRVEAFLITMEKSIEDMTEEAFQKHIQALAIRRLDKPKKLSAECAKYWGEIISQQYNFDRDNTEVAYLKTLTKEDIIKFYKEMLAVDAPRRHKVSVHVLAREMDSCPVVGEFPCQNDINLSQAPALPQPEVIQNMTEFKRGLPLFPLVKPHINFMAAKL

[3] = molecular target: T2, Apoptotic protease-activating factor 1 (Homo sapiens, UniProt O14727); type: functional
T2 sequence (O14727 whole entry): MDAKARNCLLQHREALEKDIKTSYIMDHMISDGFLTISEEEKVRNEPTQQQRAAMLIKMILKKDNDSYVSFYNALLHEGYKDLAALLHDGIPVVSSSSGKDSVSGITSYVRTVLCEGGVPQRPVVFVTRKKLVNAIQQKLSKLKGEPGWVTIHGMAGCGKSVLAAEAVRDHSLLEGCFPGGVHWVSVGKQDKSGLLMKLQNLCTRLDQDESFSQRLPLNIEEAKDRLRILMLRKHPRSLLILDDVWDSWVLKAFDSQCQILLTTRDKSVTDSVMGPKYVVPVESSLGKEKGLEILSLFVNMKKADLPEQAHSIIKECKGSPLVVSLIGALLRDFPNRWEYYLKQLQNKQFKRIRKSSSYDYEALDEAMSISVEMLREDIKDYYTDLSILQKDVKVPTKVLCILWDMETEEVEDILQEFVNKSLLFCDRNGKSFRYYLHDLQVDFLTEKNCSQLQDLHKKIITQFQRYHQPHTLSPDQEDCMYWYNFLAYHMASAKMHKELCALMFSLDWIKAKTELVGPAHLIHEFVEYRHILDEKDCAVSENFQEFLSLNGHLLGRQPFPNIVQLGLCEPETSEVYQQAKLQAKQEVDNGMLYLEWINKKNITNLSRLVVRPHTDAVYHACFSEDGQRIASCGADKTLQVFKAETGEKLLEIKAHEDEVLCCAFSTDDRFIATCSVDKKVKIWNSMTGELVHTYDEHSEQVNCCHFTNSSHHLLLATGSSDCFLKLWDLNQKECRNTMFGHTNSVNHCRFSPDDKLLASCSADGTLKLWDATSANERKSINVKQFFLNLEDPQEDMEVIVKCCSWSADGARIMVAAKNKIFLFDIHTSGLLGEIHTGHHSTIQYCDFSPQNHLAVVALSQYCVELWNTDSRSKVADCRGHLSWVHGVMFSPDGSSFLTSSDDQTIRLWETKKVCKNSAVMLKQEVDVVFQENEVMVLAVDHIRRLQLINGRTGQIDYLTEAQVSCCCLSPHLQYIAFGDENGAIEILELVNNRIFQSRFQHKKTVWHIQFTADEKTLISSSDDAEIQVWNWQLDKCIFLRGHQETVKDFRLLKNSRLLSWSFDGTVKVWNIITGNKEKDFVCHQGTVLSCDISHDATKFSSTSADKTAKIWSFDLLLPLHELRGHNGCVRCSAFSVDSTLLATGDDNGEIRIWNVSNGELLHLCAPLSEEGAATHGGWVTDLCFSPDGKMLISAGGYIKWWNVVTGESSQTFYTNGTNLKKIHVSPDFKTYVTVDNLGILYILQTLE

Insulin-degrading enzyme [4] = molecular target: T1, Insulin-degrading enzyme; assay: activators of endogenous IDE in HEK cells, dose response, cell-based, fluorescence polarization (AID 588439); type: functional
HEK293 [5] = assay: HEK cell cytotoxicity by LDH release, dose response, cytotoxicity control for IDE activator project, fluorescence, HEK cells (AID 588440); type: functional, cell-based; conditions: Homo sapiens;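 note: cytotoxicity by LDH release measuring loss of membrane integrity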
HEK293 [6] = assay: optical interference in Abeta FP readout, dose response, artefact control for IDE activator project, biochemical, fluorescence polarization (AID 588442); type: functional, cell-based; conditions: Homo sapiens
[7] = molecular target: T3, Heat shock factor protein 1 (Mus musculus, UniProt P38532); assay: inhibition of MG132-induced HSE-luciferase signal, confirmation, cell-based, NIH3T3, luminescence, dose retest (AID 2382); type: functional;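 note: NIH3T3 fibroblasts with HSF1-driven luciferase reporter stressed by proteasome inhibitor MG132; luminescence from HSF1-driven luciferase expression after 8 hours of MG132 stress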
T3 sequence (P38532 whole entry): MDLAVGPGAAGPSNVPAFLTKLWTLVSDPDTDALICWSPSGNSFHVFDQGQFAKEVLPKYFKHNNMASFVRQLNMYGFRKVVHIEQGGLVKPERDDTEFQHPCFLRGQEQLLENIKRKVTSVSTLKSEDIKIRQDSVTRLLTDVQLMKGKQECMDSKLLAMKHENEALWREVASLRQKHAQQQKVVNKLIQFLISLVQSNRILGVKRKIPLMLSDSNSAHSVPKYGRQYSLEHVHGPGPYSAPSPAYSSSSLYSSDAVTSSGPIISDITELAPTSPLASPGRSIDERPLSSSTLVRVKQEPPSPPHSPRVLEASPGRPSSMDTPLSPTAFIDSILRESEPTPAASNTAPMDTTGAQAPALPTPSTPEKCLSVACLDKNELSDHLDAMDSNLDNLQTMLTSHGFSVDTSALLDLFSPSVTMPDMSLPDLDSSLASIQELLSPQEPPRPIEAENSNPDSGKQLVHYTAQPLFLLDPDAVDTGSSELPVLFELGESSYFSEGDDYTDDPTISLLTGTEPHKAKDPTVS

Cytochrome P450 2C19 = Cytochrome P450 2C19 (Homo sapiens, UniProt P33261); assay: Cytochrome panel assay with activity outcomes. Panel member name: p450-cyp2c19 Compounds with AC50 equal or less than 10 uM are considered active; type: functional; conditions: read-out: AC50
Cytochrome P450 3A4 = Cytochrome P450 3A4 (Homo sapiens, UniProt P08684);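 note: CYP3A4 tested as one member of a cytochrome P450 panel screen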
Cytochrome P450 2D6 = Cytochrome P450 2D6 (Homo sapiens, UniProt P10635);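 note: CYP2D6 member of a cytochrome P450 panel assay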
CHO = assay: cytotoxicity in TLR9-MyD88 CHO cells, dose response, cytotoxicity control for TLR9-MyD88 binding inhibitor project, cell-based, luminescence (AID 588339); type: functional, hamster; conditions: Cricetulus griseus;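 note: CHO cells stably coexpressing TLR9 and MyD88 fusions from primary screen; compound exposure lasted 48 hours before viability readout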
Keap1/Nrf2 = Keap1/Nrf2 (Homo sapiens, UniProt Q14145); assay: Keap1-Nrf2 protein-protein interaction inhibitors, dose response, biochemical, fluorescence polarization, cherry-picked samples (AID 588683)
Beta Lactamase = Beta Lactamase (Pseudomonas aeruginosa, UniProt Q932Y6); assay: beta-lactamase reporter inhibitor potency, dose response, artefact control for TLR9-MyD88 binding inhibitor project, BLA reporter cells, FRET fluorescence (AID 588341); type: cell-based;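 note: cell based assay in CHO-K1 cells stably expressing beta-lactamase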
[8] = molecular target: Dual specificity tyrosine-phosphorylation-regulated kinase 1A (Rattus norvegicus, UniProt Q63470); type: biochemical, Homo sapiens
Candida albicans = assay: growth inhibition of resistant C. albicans, dose response, CaCi-8, fluconazole, Alamar Blue, dry powder (AID 488807); type: functional, organism-based
[9] = inhibitors of firefly luciferase expression or activity, dose response, H4 neuroglioma cells, luminescence (AID 1990); type: functional, cell-based
[10] = Luminescence Cell-Based Dose Response HTS to Identify Inhibitors of 5'UTR Stem-Loop Driven Prion Protein mRNA Translation in H4 Neuroglioblastoma Cells. [Related pubchem assays: 1827 (Project Summary), 1813 (Primary HTS)]; type: functional
[11] = inhibitors of SNCA 5'UTR-driven reporter translation, confirmation, H4 neuroglioma cells, luminescence (AID 1988); type: functional, cell-based
Jurkat = assay: antigen receptor-induced NF-kB inhibitors, dose response, Jurkat, luciferase reporter, luminescence, B- and T-cell (AID 489004); type: functional, cell-based; conditions: Homo sapiens;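 note: NF-kB luciferase reporter Jurkat cells stimulated with PMA plus ionomycin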
[12] = cytotoxicity in HEK-293T NF-kB-Luc cells, dose response, cytotoxicity control for B/T-cell NF-kB inhibitor project, cell-based, uHTS hits (AID 489019); type: functional;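 note: IC50 reflects cytotoxicity as loss of cell viability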
[13] = CEM21 lymphoblast cell cytotoxicity, dose response, cytotoxicity control for viral fusion inhibitor project, CellTiter-Glo luminescence, cherry-picked (AID 652042); type: functional, cell-based;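 note: potency for signal decrease meaning cytotoxicity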
[14] = off-target signal loss in HeLa-CEM21 co-culture – HeLa F-luc CTL cells, cherry-picked, counter-screen for HIV-1 Env fusion inhibitor project, dose response (AID 652040); type: functional, cell-based;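 note: potency for signal decrease marking cytotoxic or nonspecific inhibition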
[15] = inhibitors of clade B AD8 Env fusion, dose response, cell-based, cherry-pick (AID 652062); type: functional;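 note: luciferase signal from cell-cell fusion driven by HIV-1 clade B AD8 Env; potency is for inhibitors of fusion seen as a drop in luminescence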
[16] = molecular target: Beta-adrenergic receptor kinase 1 (Homo sapiens, UniProt P25098); assay: GRK2 inhibitors displacing RNA aptamer, dose response, biochemical, flow cytometry beads, FAM-aptamer, powder set 1 (AID 588720)
Chain of Beta-adrenergic receptor kinase 1 (P25098 whole entry): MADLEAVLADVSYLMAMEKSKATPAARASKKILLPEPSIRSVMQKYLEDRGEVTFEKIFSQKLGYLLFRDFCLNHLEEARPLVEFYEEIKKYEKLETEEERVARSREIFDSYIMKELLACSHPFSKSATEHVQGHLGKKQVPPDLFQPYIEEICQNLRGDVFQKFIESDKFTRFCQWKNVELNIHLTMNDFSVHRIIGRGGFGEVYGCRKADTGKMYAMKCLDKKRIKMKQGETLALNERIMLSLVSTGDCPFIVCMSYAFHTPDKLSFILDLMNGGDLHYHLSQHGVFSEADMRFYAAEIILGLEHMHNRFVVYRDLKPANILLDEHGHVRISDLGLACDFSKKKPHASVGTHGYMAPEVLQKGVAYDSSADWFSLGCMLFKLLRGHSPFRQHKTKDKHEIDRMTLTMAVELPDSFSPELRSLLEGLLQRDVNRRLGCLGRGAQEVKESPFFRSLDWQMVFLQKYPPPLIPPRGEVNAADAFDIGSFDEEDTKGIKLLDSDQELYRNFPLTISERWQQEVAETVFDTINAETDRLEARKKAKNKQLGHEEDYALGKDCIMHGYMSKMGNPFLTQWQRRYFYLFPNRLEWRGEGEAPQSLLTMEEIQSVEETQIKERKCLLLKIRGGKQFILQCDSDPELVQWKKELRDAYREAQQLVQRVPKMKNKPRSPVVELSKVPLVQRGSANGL

Chain of ORF 73 (O40947 whole entry): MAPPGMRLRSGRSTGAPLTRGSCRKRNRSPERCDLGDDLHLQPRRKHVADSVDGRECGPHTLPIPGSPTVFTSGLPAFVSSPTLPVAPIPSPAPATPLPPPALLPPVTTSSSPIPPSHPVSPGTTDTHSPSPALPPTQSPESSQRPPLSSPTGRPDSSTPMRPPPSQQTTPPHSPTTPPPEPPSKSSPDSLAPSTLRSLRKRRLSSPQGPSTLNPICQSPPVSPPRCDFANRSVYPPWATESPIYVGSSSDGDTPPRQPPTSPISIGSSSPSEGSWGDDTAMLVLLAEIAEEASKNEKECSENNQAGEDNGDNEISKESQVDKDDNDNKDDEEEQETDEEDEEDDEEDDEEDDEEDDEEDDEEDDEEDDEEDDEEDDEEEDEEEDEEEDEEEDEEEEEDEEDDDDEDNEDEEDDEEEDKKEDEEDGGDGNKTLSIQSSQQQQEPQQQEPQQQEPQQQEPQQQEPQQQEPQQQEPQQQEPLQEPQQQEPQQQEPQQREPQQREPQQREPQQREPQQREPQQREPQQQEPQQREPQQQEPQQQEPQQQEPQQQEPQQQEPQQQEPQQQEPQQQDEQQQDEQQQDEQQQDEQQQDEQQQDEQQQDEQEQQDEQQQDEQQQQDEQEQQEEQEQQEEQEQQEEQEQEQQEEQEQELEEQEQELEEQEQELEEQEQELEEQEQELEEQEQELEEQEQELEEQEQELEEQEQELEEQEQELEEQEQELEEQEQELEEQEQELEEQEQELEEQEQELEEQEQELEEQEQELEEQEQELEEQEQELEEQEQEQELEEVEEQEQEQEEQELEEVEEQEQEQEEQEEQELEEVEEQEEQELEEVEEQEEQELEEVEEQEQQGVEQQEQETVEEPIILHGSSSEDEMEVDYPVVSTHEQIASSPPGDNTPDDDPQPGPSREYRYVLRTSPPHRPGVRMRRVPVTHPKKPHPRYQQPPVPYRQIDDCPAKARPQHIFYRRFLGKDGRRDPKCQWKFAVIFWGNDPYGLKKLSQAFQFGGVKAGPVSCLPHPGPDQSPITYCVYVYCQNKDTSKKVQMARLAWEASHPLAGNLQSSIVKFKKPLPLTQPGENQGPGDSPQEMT
Chain of Cytochrome P450 2C19 (P33261 whole entry): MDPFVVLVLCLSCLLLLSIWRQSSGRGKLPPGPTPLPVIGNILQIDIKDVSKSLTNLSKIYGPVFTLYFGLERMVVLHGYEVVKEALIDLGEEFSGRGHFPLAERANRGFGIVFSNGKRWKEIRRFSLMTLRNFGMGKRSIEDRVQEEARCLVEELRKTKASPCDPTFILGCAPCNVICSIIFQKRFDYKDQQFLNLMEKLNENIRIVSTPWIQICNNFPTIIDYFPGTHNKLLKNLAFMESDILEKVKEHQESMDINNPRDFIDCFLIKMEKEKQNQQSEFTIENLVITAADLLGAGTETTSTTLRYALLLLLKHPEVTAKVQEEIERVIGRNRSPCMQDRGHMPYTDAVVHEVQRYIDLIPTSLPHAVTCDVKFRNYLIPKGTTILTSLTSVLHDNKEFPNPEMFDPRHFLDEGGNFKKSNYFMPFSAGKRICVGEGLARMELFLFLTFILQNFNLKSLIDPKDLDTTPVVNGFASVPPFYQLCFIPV
Chain of UDP-galactopyranose mutase (P9WIQ1 whole entry): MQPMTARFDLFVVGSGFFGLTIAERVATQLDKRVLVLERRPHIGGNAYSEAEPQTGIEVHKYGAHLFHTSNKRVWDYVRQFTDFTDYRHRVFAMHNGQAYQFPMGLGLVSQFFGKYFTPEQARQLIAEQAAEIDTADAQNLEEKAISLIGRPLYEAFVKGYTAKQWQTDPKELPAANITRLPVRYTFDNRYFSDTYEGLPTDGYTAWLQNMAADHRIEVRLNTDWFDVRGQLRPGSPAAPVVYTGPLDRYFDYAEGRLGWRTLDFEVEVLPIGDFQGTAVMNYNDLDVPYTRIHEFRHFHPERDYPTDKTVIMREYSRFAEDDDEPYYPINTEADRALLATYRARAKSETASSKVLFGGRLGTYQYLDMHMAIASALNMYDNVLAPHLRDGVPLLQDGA
Chain of Cytochrome P450 3A4 (P08684 whole entry): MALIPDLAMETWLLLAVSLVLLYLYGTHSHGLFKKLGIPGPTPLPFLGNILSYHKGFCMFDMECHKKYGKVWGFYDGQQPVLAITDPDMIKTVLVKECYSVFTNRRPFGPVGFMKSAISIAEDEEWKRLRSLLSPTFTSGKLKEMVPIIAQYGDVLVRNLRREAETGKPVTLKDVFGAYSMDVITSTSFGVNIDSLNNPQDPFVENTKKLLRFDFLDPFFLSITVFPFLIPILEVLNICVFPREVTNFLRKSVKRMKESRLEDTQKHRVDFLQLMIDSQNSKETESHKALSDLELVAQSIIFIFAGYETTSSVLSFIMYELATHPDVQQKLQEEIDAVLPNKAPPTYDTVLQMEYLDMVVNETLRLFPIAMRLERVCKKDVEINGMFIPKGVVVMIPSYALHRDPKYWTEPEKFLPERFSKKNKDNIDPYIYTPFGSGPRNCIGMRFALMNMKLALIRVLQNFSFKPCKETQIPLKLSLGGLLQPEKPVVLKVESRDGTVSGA
Chain of Beta Lactamase (Q932Y6 whole entry): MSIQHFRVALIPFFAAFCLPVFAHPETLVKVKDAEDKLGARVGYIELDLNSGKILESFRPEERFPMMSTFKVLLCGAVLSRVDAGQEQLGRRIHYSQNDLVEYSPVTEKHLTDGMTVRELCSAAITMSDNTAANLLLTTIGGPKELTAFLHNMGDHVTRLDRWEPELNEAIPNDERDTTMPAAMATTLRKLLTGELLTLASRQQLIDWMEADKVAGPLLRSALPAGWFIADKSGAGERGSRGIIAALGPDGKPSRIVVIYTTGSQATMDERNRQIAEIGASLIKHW
Chain of Cytochrome P450 2D6 (P10635 whole entry, the tested form may be a part): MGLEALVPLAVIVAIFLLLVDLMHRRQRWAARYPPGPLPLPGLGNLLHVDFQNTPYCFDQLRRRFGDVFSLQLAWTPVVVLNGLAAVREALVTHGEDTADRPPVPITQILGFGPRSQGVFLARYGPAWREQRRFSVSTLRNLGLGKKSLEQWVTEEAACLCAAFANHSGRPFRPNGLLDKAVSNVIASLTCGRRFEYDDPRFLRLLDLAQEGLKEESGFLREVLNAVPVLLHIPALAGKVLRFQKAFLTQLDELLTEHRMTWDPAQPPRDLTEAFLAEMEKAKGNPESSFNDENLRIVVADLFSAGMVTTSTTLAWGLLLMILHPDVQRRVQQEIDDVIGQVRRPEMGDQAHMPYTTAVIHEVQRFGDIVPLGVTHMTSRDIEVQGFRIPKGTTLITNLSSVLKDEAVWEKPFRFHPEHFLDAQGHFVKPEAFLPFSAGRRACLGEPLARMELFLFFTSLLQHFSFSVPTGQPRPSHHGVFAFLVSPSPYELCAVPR

## CCOc1ccc2noc3c2c1C(=O)c1ccccc1-3
ORF 73
  AC50: 0.572 µM (active)
[1]
  AC50: 0.356 µM (active)
Insulin-degrading enzyme [2]
  EC50: > 54.7 µM (inactive)
[3]
  IC50: 87.4 µM (active)
Insulin-degrading enzyme [4]
  EC50: > 54.7 µM (inactive)
HEK293 [5]
  IC50: > 89.1 µM (inactive)
HEK293 [6]
  EC50: 4.95 µM (active)

## CCOC(=O)Cc1csc(NC(=O)c2sc3nc4ccc(CC)cc4cc3c2N)n1
[7]
  EC50: > 195 µM (not active)
Cytochrome P450 2C19
  AC50: 0.2 µM (inconclusive)
Cytochrome P450 3A4
  AC50: 35.5 µM (inconclusive)
Cytochrome P450 2D6
  AC50: inconclusive

## Oc1ccc2nnc3c(Br)cnn3c2c1
ORF 73
  AC50: 6.64 µM (active)
CHO
  IC50: > 49.8 µM (inactive)
Keap1/Nrf2
  AC50: 16.1 µM (active)
Beta Lactamase
  IC50: 6.63 µM (active)
[8]
  AC50: 1.11 µM (active)

## O=C(O)c1c2ccccc2nn1Cc1ccc(Cl)cc1
Candida albicans
  AC50: 149 µM (active)

## CCOc1ccc(-c2cc(CCCC(=O)Nc3cccc(OC)c3)no2)cc1
[9]
  EC50: 7.56 µM (active)
[10]
  EC50: 0.24 µM (active)
[11]
  EC50: 3.89 µM (active)
Jurkat
  IC50: 9.95 µM (active)
[12]
  IC50: > 80 µM (inactive)
[13]
  AC50: 58.9 µM (active)
[14]
  AC50: 55.4 µM (active)
[15]
  AC50: 2.45 µM (active)

## COc1ccc(CCNC(=O)CCS(=O)(=O)c2ccc(Br)cc2)cc1OC
[16]
  EC50: 14.9 µM (active)
